Measured values as given in the NIST ThermoML archive (doi:10.1021/je200093f).
Several values for one entry are separate records, joined by “and”; a condition that tells them apart may be missing. Equal entries are not always repeated. Numbers after ± are expanded uncertainties.

Assays:
[1] = xn = mol fraction of the nth substance listed; conditions: 298.15 K, 101 kPa, Liquid, Vibrating tube method
[2] = excess molar enthalpy (molar enthalpy of mixing); xn = mol fraction of the nth substance listed; conditions: 298.15 K, 101 kPa, Liquid, Calvet calorimetry
[3] = 101.33 kPa, Liquid, Vibrating tube method

Cc1cccc(C)n1 [2,6-dimethylpyridine] + CO
Conditions | excess molar enthalpy, [2] | mass density, [1]
x1 = 0.001741 | -0.00321 kcal/mol and -0.00319 kcal/mol | –
x1 = 0.003476 | -0.00637 kcal/mol and -0.00641 kcal/mol | 788.131 ± 0.61 kg/m3 and 788.126 ± 0.61 kg/m3
x1 = 0.005205 | -0.0096 ± 0.000263 kcal/mol | 788.964 ± 0.61 kg/m3
x1 = 0.005206 | -0.00957 ± 0.000263 kcal/mol | 788.971 ± 0.61 kg/m3
x1 = 0.006928 | -0.0128 ± 0.000287 kcal/mol | 789.788 ± 0.61 kg/m3
x1 = 0.006929 | -0.0127 ± 0.000287 kcal/mol | 789.802 ± 0.61 kg/m3
x1 = 0.008643 | -0.0159 ± 0.000311 kcal/mol | 790.602 ± 0.61 kg/m3
x1 = 0.008647 | -0.0159 ± 0.000311 kcal/mol | 790.625 ± 0.61 kg/m3
x1 = 0.01035 | -0.019 ± 0.000335 kcal/mol | 791.405 ± 0.61 kg/m3
x1 = 0.01036 | -0.019 ± 0.000335 kcal/mol | 791.414 ± 0.61 kg/m3

Cn1ccnc1 [1-methylimidazole]
Conditions | mass density [kg/m3]
[3], 298.15 K | 1031.14 ± 0.47

Cc1ccncc1 [4-methylpyridine]
Conditions | mass density [kg/m3]
[3], 298.15 K | 949.87 ± 0.47

Cc1cccc(C)n1 [2,6-dimethylpyridine]
Conditions | mass density [kg/m3]
[3], 298.15 K | 918.19 ± 0.45

CN1CCCCC1 [N-methylpiperidine]
[3]
Conditions | mass density [kg/m3]
288.15 K | 821.53 ± 0.46
293.15 K | 817.22 ± 0.46
298.15 K | 812.62 ± 0.46
303.15 K | 808.16 ± 0.46
308.15 K | 803.61 ± 0.46

Cc1cccnc1 [3-methylpyridine] + O
Conditions | excess molar enthalpy, [2] | mass density, [1]
x1 = 0.000922 | -0.00213 kcal/mol and -0.00212 kcal/mol | 997.03 ± 0.21 kg/m3 and 997.031 ± 0.21 kg/m3
x1 = 0.001842 | -0.00422 kcal/mol and -0.0042 kcal/mol | 997.017 ± 0.21 kg/m3 and 997.018 ± 0.21 kg/m3
x1 = 0.00276 | -0.00626 ± 0.000234 kcal/mol | 997.008 ± 0.21 kg/m3
x1 = 0.002761 | -0.00629 ± 0.000234 kcal/mol | 997.007 ± 0.21 kg/m3
x1 = 0.003677 | -0.00828 ± 0.000239 kcal/mol | 996.999 ± 0.21 kg/m3
x1 = 0.003678 | -0.00833 ± 0.000239 kcal/mol | 996.998 ± 0.21 kg/m3
x1 = 0.004592 | -0.0103 ± 0.000263 kcal/mol | 996.991 ± 0.21 kg/m3
x1 = 0.004594 | -0.0103 ± 0.000263 kcal/mol | 996.989 ± 0.21 kg/m3
x1 = 0.005507 | -0.0122 ± 0.000287 kcal/mol | 996.982 ± 0.21 kg/m3
x1 = 0.005509 | -0.0122 ± 0.000287 kcal/mol | 996.98 ± 0.21 kg/m3

Cc1cccc(C)n1 [2,6-dimethylpyridine] + O
Conditions | excess molar enthalpy, [2] [kcal/mol] | mass density, [1] [kg/m3]
x1 = 0.000772 | -0.00277 ± 0.000206 | 996.946 ± 0.21
x1 = 0.000773 | -0.00281 ± 0.000208 | 996.945 ± 0.21
x1 = 0.001543 | -0.00565 ± 0.000229 | 996.862 ± 0.21
x1 = 0.001544 | -0.00567 ± 0.000229 | 996.861 ± 0.21
x1 = 0.002312 | -0.00855 ± 0.000239 | 996.792 ± 0.21
x1 = 0.002314 | -0.0086 ± 0.000239 | 996.791 ± 0.21
x1 = 0.00308 | -0.0115 ± 0.000263 | 996.732 ± 0.21
x1 = 0.003083 | -0.0115 ± 0.000263 | 996.734 ± 0.21
x1 = 0.003847 | -0.0144 ± 0.000287 | 996.685 ± 0.21
x1 = 0.003851 | -0.0144 ± 0.000287 | 996.684 ± 0.21
x1 = 0.004615 | -0.0173 ± 0.000335 | 996.644 ± 0.21
x1 = 0.004618 | -0.0173 ± 0.000335 | 996.644 ± 0.21

Cc1ccncc1 [4-methylpyridine] + O
Conditions | excess molar enthalpy, [2] | mass density, [1]
x1 = 0.000919 | -0.00217 kcal/mol and -0.00216 kcal/mol | 997.023 ± 0.21 kg/m3 and 997.024 ± 0.21 kg/m3
x1 = 0.001837 | -0.00432 kcal/mol and -0.00429 kcal/mol | 997.005 ± 0.21 kg/m3
x1 = 0.002753 | -0.0064 ± 0.000234 kcal/mol | 996.988 ± 0.21 kg/m3
x1 = 0.002754 | -0.0064 ± 0.000234 kcal/mol | 996.988 ± 0.21 kg/m3
x1 = 0.003667 | -0.00843 ± 0.000239 kcal/mol | 996.972 ± 0.21 kg/m3
x1 = 0.003668 | -0.00844 ± 0.000239 kcal/mol | 996.971 ± 0.21 kg/m3
x1 = 0.00458 | -0.0105 kcal/mol | 996.955 ± 0.21 kg/m3 and 996.956 ± 0.21 kg/m3
x1 = 0.005492 | -0.0124 kcal/mol | 996.939 ± 0.21 kg/m3

Cc1cccnc1 [3-methylpyridine]
Conditions | mass density [kg/m3]
[3], 298.15 K | 952.61 ± 0.45

Cn1ccnc1 [1-methylimidazole] + O
Conditions | excess molar enthalpy, [2] [kcal/mol] | mass density, [1] [kg/m3]
x1 = 0.001133 | -0.00255 ± 0.000206 | 997.279 ± 0.21
x1 = 0.001134 | -0.00254 ± 0.000206 | 997.281 ± 0.21
x1 = 0.002264 | -0.00507 ± 0.000225 | 997.513 ± 0.21
x1 = 0.002265 | -0.00505 ± 0.000225 | 997.514 ± 0.21
x1 = 0.003392 | -0.00759 ± 0.000239 | 997.75 ± 0.21
x1 = 0.003394 | -0.00757 ± 0.000239 | 997.75 ± 0.21
x1 = 0.004518 | -0.0101 ± 0.000263 | 997.985 ± 0.21
x1 = 0.00452 | -0.01 ± 0.000263 | 997.986 ± 0.21
x1 = 0.005642 | -0.0126 ± 0.000287 | 998.222 ± 0.21
x1 = 0.005644 | -0.0125 ± 0.000287 | 998.246 ± 0.21
x1 = 0.006765 | -0.015 ± 0.000311 | 998.459 ± 0.21
x1 = 0.006766 | -0.015 ± 0.000311 | 998.483 ± 0.21
